Assay results reported in patent publication US20240343717A1, “MICROBIOCIDAL PYRAZOLE DERIVATIVES” (SYNGENTA CROP PROTECTION AG, priority 2021, published 2024).

Assays:
Alternaria solani = Alternaria solani / tomato / leaf disc (early blight); format: in vivo; conditions: foliar, tomato leaf disks, sprayed 2 days before inoculation, compared to untreated control
Protocol: Example B1: Alternaria solani/Tomato/Leaf Disc (Early Blight) Tomato leaf disks cv. Baby are placed on agar in multiwell plates (24-well format) and sprayed with the formulated test compound diluted in water. The leaf disks are inoculated with a spore suspension of the fungus 2 days after application. The inoculated leaf disks are incubated at 23° C./21° C.

[1] = system: Botryotinia fuckeliana (Botrytis cinerea); assay: Botryotinia fuckeliana (Botrytis cinerea) / liquid culture (gray mould); format: cell-based; conditions: growth inhibition photometrically 3-4 days after application, read-out: control of Botryotinia fuckeliana
Procedure, shortened: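 Conidia suspended in Vogels broth and added to compound dispensed from DMSO. Incubated at 24°C, with growth inhibition measured photometrically 3–4 days later.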

[2] = system: Glomerella lagenarium (Colletotrichum lagenarium); assay: Glomerella lagenarium (Colletotrichum lagenarium) / liquid culture (anthracnose); format: cell-based; conditions: Colletotrichum orbiculare, growth inhibition photometrically 3-4 days after application, read-out: control of Glomerella lagenarium
Procedure, shortened: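 Cryo-stored conidia in potato dextrose broth were added to test compound in DMSO. Plates were incubated at 24° C, and growth inhibition was read photometrically 3-4 days after application.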

[3] = system: Blumeria graminis f. sp. tritici (Erysiphe graminis f. sp. tritici); assay: Blumeria graminis f. sp. tritici / wheat / leaf disc preventative (powdery mildew on wheat); format: in vivo; conditions: foliar, wheat leaf segments, inoculated 1 day after application
Protocol: Example B4: Blumeria graminis f. Sp. Tritici (Erysiphe graminis f. Sp. Tritici)/Wheat/Leaf Disc Preventative (Powdery Mildew on Wheat) Wheat leaf segments cv. Kanzler are placed on agar in a multiwell plate (24-well format) and sprayed with the formulated test compound diluted in water. The leaf disks are inoculated by shaking powdery mildew infected plants above the test plates 1 day after application. The inoculated leaf disks are incubated at 20° C. and 60% rh under a light regime of 24 h darkness followed by 12 h light/12 h darkness in a climate chamber and the activity of a compound is assessed as percent disease control compared to untreated when an appropriate level of disease damage appears on untreated check leaf segments (6-8 days after application).

Fusarium culmorum = assay: microbe, parasite or virus in culture; format: cell-based; conditions: read-out: control of Fusarium culmorum
[4] = system: Gibberella zeae (Fusarium graminearum); assay: whole plant or invertebrate; format: in vivo; conditions: in Triticum aestivum, read-out: control of Gibberella zeae
[5] = system: Phaeosphaeria nodorum (Septoria nodorum); assay: Phaeosphaeria nodorum (Septoria nodorum) / wheat / leaf disc preventative (glume blotch); format: in vivo; conditions: Parastagonospora nodorum, foliar, wheat leaf segments, inoculated 2 days after application
Protocol: Example B8: Phaeosphaeria nodorum (Septoria nodorum)/Wheat/Leaf Disc Preventative (Glume Blotch) Wheat leaf segments cv. Kanzler are placed on agar in a multiwell plate (24-well format) and sprayed with the formulated test compound diluted in water. The leaf disks are inoculated with a spore suspension of the fungus 2 days after application. The inoculated test leaf disks are incubated at 20° C. and 75% rh under a light regime of 12 h light/12 h darkness in a climate cabinet and the activity of a compound is assessed as percent disease control compared to untreated when an appropriate level of disease damage appears in untreated check leaf disks (5-7 days after application).

[6] = system: Monographella nivalis (Microdochium nivale); assay: Monographella nivalis (Microdochium nivale) / liquid culture (foot rot cereals); format: cell-based; conditions: growth inhibition photometrically 4-5 days after application, read-out: control of Monographella nivalis
Procedure, shortened: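 Fungal conidia mixed directly into potato dextrose broth and added to test compound delivered in DMSO. Incubated at 24° C; growth inhibition read photometrically 4-5 days after application.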

[7] = system: Mycosphaerella arachidis (Cercospora arachidicola); assay: Mycosphaerella arachidis (Cercospora arachidicola) / liquid culture (early leaf spot); format: cell-based; conditions: growth inhibition photometrically 4-5 days after application, read-out: control of Mycosphaerella arachidis
Procedure, shortened: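 Spores taken straight from cryostorage are suspended in potato dextrose broth and added to test compound in DMSO. Plates are incubated at 24° C. Growth inhibition is scored photometrically 4-5 days after application.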

Pyrenophora teres = Pyrenophora teres / barley / leaf disc preventative (net blotch); format: in vivo; conditions: foliar, barley leaf segments, inoculated 2 days after application
Procedure, shortened: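 Barley cv. Hasso leaf segments on agar sprayed with formulated compound, inoculated with spores 2 days later. Incubated at 20 °C, 65% rh, 12 h light/dark; disease control versus untreated assessed 5–7 days after application.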

Sclerotinia sclerotiorum = Sclerotinia sclerotiorum / liquid culture (cottony rot); format: cell-based; conditions: growth inhibition photometrically 3-4 days after application, read-out: control of Sclerotinia sclerotiorum
Protocol: Example B15: Sclerotinia sclerotiorum/Liquid Culture (Cottony Rot) Mycelia fragments of a newly grown liquid culture of the fungus are directly mixed into nutrient broth (PDB potato dextrose broth). After placing a (DMSO) solution of test compound into a microtiter plate (96-well format) the nutrient broth containing the fungal material is added. The test plates are incubated at 24° C. and the inhibition of growth is determined photometrically 3-4 days after application.

[8] = system: Mycosphaerella graminicola (Septoria tritici); assay: Mycosphaerella graminicola (Septoria tritici) / liquid culture (Septoria blotch); format: cell-based; conditions: Zymoseptoria tritici, growth inhibition photometrically 4-5 days after application, read-out: control of Mycosphaerella graminicola
Procedure, shortened: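 Conidia suspended in potato dextrose broth and added to test compound supplied in DMSO in 96-well plates. Incubated at 24 °C, and growth inhibition read photometrically 4-5 days after application.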

Cn1cc(C(C)(CNC(=O)c2nnc(-c3ccc(F)cc3F)s2)c2cccc(Cl)n2)cn1 (centres unmarked) [Compound P-9, N-[2-(6-chloro-2-pyridyl)-2-(1-methylpyrazol-4-yl)propyl]-5-(2,4-difluorophenyl)-1,3,4-thiadiazole-2-carboxamide]
pest or weed control at 200 ppm (Alternaria solani): ≥ 80%
inhibition of growth at 20 ppm [1]: ≥ 80%
inhibition of growth at 20 ppm [2]: ≥ 80%
pest or weed control at 200 ppm [3]: ≥ 80%
inhibition of growth at 20 ppm (Fusarium culmorum): ≥ 80%
pest or weed control at 200 ppm [4]: ≥ 80%
pest or weed control at 200 ppm [5]: ≥ 80%
inhibition of growth at 20 ppm [6]: ≥ 80%
inhibition of growth at 20 ppm [7]: ≥ 80%
pest or weed control at 200 ppm (Pyrenophora teres): ≥ 80%
inhibition of growth at 20 ppm (Sclerotinia sclerotiorum): ≥ 80%
inhibition of growth at 20 ppm [8]: ≥ 80%

COc1ccc(C(C)(CNC(=O)c2cc(-c3ccc(F)cc3F)on2)c2cnn(C)c2)nc1Cl (centres unmarked) [Compound P-14, N-[2-(6-chloro-5-methoxy-2-pyridyl)-2-(1-methylpyrazol-4-yl)propyl]-5-(2,4-difluorophenyl) isoxazole-3-carboxamide]
inhibition of growth at 20 ppm [8]: ≥ 80%
melting point: 196 to 199 °C

Cn1cc([C@@](C)(CNC(=O)c2cc(-c3ccc(F)cc3F)on2)c2cccc(Cl)n2)cn1 [Compound P-30, N-[(2S)-2-(6-chloro-2-pyridyl)-2-(1-methylpyrazol-4-yl)propyl]-5-(2,4-difluorophenyl) isoxazole-3-carboxamide]
pest or weed control at 200 ppm [4]: ≥ 80%

Cn1cc(C(C)(CNC(=O)c2cc(-c3ccc(F)cc3F)on2)c2cc(C#N)ccn2)cn1 (centres unmarked) [Compound P-63, N-[2-(4-cyano-2-pyridyl)-2-(1-methylpyrazol-4-yl)propyl]-5-(2,4-difluorophenyl) isoxazole-3-carboxamide]
pest or weed control at 200 ppm (Pyrenophora teres): ≥ 80%
inhibition of growth at 20 ppm [8]: ≥ 80%
melting point: 156 to 158 °C

Cn1ncc(C(CNC(=O)c2cc(-c3ccc(F)cc3F)on2)c2cccc(Cl)n2)c1Cl (centres unmarked) [Compound P-69, N-[2-(5-chloro-1-methyl-pyrazol-4-yl)-2-(6-chloro-2-pyridyl)ethyl]-5-(2,4-difluorophenyl) isoxazole-3-carboxamide]
inhibition of growth at 20 ppm [1]: ≥ 80%
inhibition of growth at 20 ppm [2]: ≥ 80%
pest or weed control at 200 ppm [3]: ≥ 80%
pest or weed control at 200 ppm [5]: ≥ 80%
inhibition of growth at 20 ppm [6]: ≥ 80%
inhibition of growth at 20 ppm [7]: ≥ 80%
pest or weed control at 200 ppm (Pyrenophora teres): ≥ 80%
inhibition of growth at 20 ppm [8]: ≥ 80%
melting point: 113 to 115 °C

CO/N=C(\C)c1ccnc(C(C)(CNC(=O)c2cc(-c3ccc(F)cc3F)on2)c2cnn(C)c2)c1 (centres unmarked) [Compound P-72, 5-(2,4-difluorophenyl)-N-[2-[4-[(E)-N-methoxy-C-methyl-carbonimidoyl]-2-pyridyl]-2-(1-methylpyrazol-4-yl)propyl]isoxazole-3-carboxamide]
inhibition of growth at 20 ppm [6]: ≥ 80%
melting point: 88 to 90 °C

Cn1cc(C(C)(CNC(=O)c2cc(C3CCCC3)on2)c2cccc(Cl)n2)cn1 (centres unmarked) [Compound P-80, N-[2-(6-chloro-2-pyridyl)-2-(1-methylpyrazol-4-yl)propyl]-5-cyclopentyl-isoxazole-3-carboxamide]
pest or weed control at 200 ppm (Alternaria solani): ≥ 80%
inhibition of growth at 20 ppm [1]: ≥ 80%
inhibition of growth at 20 ppm [2]: ≥ 80%
inhibition of growth at 20 ppm (Fusarium culmorum): ≥ 80%
pest or weed control at 200 ppm [4]: ≥ 80%
inhibition of growth at 20 ppm [6]: ≥ 80%
inhibition of growth at 20 ppm [7]: ≥ 80%
pest or weed control at 200 ppm (Pyrenophora teres): ≥ 80%
inhibition of growth at 20 ppm [8]: ≥ 80%

Cn1cc(C(C)(CNC(=O)c2cc(-c3cccn3C)on2)c2cccc(Cl)n2)cn1 (centres unmarked) [Compound P-81, N-[2-(6-chloro-2-pyridyl)-2-(1-methylpyrazol-4-yl)propyl]-5-(1-methylpyrrol-2-yl)isoxazole-3-carboxamide]
inhibition of growth at 20 ppm [1]: ≥ 80%
inhibition of growth at 20 ppm [2]: ≥ 80%
inhibition of growth at 20 ppm [6]: ≥ 80%
inhibition of growth at 20 ppm [7]: ≥ 80%
inhibition of growth at 20 ppm [8]: ≥ 80%
melting point: 111 to 113 °C

Cc1cc(-c2cc(C(=O)NCC(C)(c3cnn(C)c3)c3cccc(Cl)n3)no2)n(C)n1 (centres unmarked) [Compound P-85, N-[2-(6-chloro-2-pyridyl)-2-(1-methylpyrazol-4-yl)propyl]-5-(2,5-dimethylpyrazol-3-yl)isoxazole-3-carboxamide]
inhibition of growth at 20 ppm [2]: ≥ 80%
pest or weed control at 200 ppm [3]: ≥ 80%
pest or weed control at 200 ppm (Pyrenophora teres): ≥ 80%
inhibition of growth at 20 ppm [8]: ≥ 80%
melting point: 182 to 184 °C

Cn1cc(C(C)(CNC(=O)c2cc(-c3ccc(F)cc3F)on2)c2cccc(C(F)(F)F)n2)cn1 (centres unmarked) [Compound P-106, 5-(2,4-difluorophenyl)-N-[2-(1-methylpyrazol-4-yl)-2-[6-(trifluoromethyl)-2-pyridyl]propyl] isoxazole-3-carboxamide]
pest or weed control at 200 ppm (Alternaria solani): ≥ 80%
inhibition of growth at 20 ppm [1]: ≥ 80%
inhibition of growth at 20 ppm [2]: ≥ 80%
inhibition of growth at 20 ppm (Fusarium culmorum): ≥ 80%
inhibition of growth at 20 ppm [6]: ≥ 80%
inhibition of growth at 20 ppm [7]: ≥ 80%
inhibition of growth at 20 ppm (Sclerotinia sclerotiorum): ≥ 80%
inhibition of growth at 20 ppm [8]: ≥ 80%
melting point: 160 to 165 °C

Cn1cc(C(C)(CNC(=O)c2nnc(-c3ccc(F)cc3F)s2)c2cccc(C(F)(F)F)n2)cn1 (centres unmarked) [Compound P-107, 5-(2,4-difluorophenyl)-N-[2-(1-methylpyrazol-4-yl)-2-[6-(trifluoromethyl)-2-pyridyl]propyl]-1,3,4-thiadiazole-2-carboxamide]
pest or weed control at 200 ppm (Alternaria solani): ≥ 80%
inhibition of growth at 20 ppm [1]: ≥ 80%
inhibition of growth at 20 ppm [2]: ≥ 80%
pest or weed control at 200 ppm [3]: ≥ 80%
inhibition of growth at 20 ppm (Fusarium culmorum): ≥ 80%
inhibition of growth at 20 ppm [6]: ≥ 80%
inhibition of growth at 20 ppm [7]: ≥ 80%
pest or weed control at 200 ppm (Pyrenophora teres): ≥ 80%
inhibition of growth at 20 ppm (Sclerotinia sclerotiorum): ≥ 80%
inhibition of growth at 20 ppm [8]: ≥ 80%
melting point: 162 to 163 °C

Cn1cc(C(C)(CNC(=O)c2nnc(-c3ccc(F)cc3F)s2)c2cccc(C#N)n2)cn1 (centres unmarked) [Compound P-115, N-[2-(6-cyano-2-pyridyl)-2-(1-methylpyrazol-4-yl)propyl]-5-(2,4-difluorophenyl)-1,3,4-thiadiazole-2-carboxamide]
inhibition of growth at 20 ppm [1]: ≥ 80%
inhibition of growth at 20 ppm [2]: ≥ 80%
inhibition of growth at 20 ppm (Fusarium culmorum): ≥ 80%
inhibition of growth at 20 ppm [6]: ≥ 80%
inhibition of growth at 20 ppm [7]: ≥ 80%
inhibition of growth at 20 ppm [8]: ≥ 80%
melting point: 169 to 170 °C

Cn1ncc(C(CNC(=O)c2nnc(-c3ccc(F)cc3F)s2)c2cccc(Cl)n2)c1Cl (centres unmarked) [Compound P-116, N-[2-(5-chloro-1-methyl-pyrazol-4-yl)-2-(6-chloro-2-pyridyl)ethyl]-5-(2,4-difluorophenyl)-1,3,4-thiadiazole-2-carboxamide]
inhibition of growth at 20 ppm [1]: ≥ 80%
inhibition of growth at 20 ppm [2]: ≥ 80%
inhibition of growth at 20 ppm (Fusarium culmorum): ≥ 80%
inhibition of growth at 20 ppm [6]: ≥ 80%
inhibition of growth at 20 ppm [7]: ≥ 80%
inhibition of growth at 20 ppm [8]: ≥ 80%
melting point: 150 to 151 °C
